The numbers were not newly measured in US20120142645A1, “NEUROACTIVE STEROID COMPOSITIONS AND METHODS OF USE FOR LOWERING CHOLESTEROL” (priority 2009, published 2012), which cites them from elsewhere.

Molecules are shown by their SMILES.

For the series, the system named is acute moderate to severe traumatic brain injury. To be noted: intravenous for three days; Wright et al., 2007; cited from earlier work.

Regarding `CC(=O)[C@H]1CC[C@H]2[C@@H]3CCC4=CC(=O)CC[C@]4(C)[C@H]3CC[C@]12C` [progesterone], the “Reduction of 30-day mortality rates” value is “over 50%”.
